From patent US10730902B2, “1,1 ′-sulfanediyl-di-beta-D-galactopyranosides as inhibitors of galectins” (GALECTO BIOTECH AB, priority 2015, dated 2020)
In brackets after ≈: the same amount, converted by molar mass. Values belong to the molecule of their own block, whether it stands above or below them.

Assays:
galectins = details: all galectins; cited from earlier work
galectin-1 = galectin-1 (Homo sapiens (Human), UniProt P09382); test: Fluorescence anisotropy assay, galectin-1 affinity; assay type: binding; details: read-out: Gal-1 Kd
Method: The affinity of Example 1-5 for galectins were determined by a fluorescence anisotropy assay where the compound was used as an inhibitor of the interaction between galectin and a fluorescein tagged saccharide probe as described Sörme, P., Kahl-Knutsson, B., Huflejt, M., Nilsson, U. J., and Leffler H. (2004) Fluorescence polarization as an analytical tool to evaluate galectin-ligand interactions. Anal. Biochem. 334: 36-47, (Sörme et al., 2004) and Monovalent interactions of Galectin-1 By Salomonsson, Emma; Larumbe, Amaia; Tejler, Johan; Tullberg, Erik; Rydberg, Hanna; Sundin, Anders; Khabut, Areej; Frejd, Torbjorn; Lobsanov, Yuri D.; Rini, James M.; et al, From Biochemistry (2010), 49(44), 9518-9532, (Salomonsson et al., 2010). […] 100 nM albumin was included as a carrier to prevent protein loss at such low concentration of galectin.

Solubility = assay type: physicochemical
galectin-3 = galectin-3 (Homo sapiens (Human), UniProt P17931); test: Fluorescence anisotropy assay, galectin-3 affinity; assay type: binding; details: read-out: Gal-3 Kd
Method: Anal. Biochem. 334: 36-47, (Sörme et al., 2004) and Monovalent interactions of Galectin-1 By Salomonsson, Emma; Larumbe, Amaia; Tejler, Johan; Tullberg, Erik; Rydberg, Hanna; Sundin, Anders; Khabut, Areej; Frejd, Torbjorn; Lobsanov, Yuri D.; Rini, James M.; et al, From Biochemistry (2010), 49(44), 9518-9532, (Salomonsson et al., 2010). […] 100 nM albumin was included as a carrier to prevent protein loss at such low concentration of galectin.

[1] = system: rabbit model of proliferative Vitreoretinopathy (PVR); test: Study of ocular fibrosis in rabbits (retinal detachment, PVR model); assay type: in vivo, New Zealand white rabbits; details: for reduction of size and number of subretinal glial scars and number of dividing cells: in HEC formulation, rabbit retinal detachment; for number of subretinal scars per mm of retina / scar length per mm of retina: seven days after retinal detachment; for number of subretinal scars per mm of retina / scar length per mm of retina / Ki67 labeled Muller cells per mm of retina: 50 μL IVT in HEC gel, GB1A 0.05 mg/mL, GB1B 1.5 mg/mL; for number of subretinal scars per mm of retina: HEC control 1.26; for scar length per mm of retina: HEC control 175; for Ki67 labeled Muller cells per mm of retina: three days after retinal detachment, HEC control 9.57
Method: 30 New Zealand white rabbits were housed in metal cages that conformed to standards set forth in the Animal Welfare Act and the Guide for the Care and Use of Laboratory Animals. Space recommendations for animals were in accordance with PHS policy and the AWA.
The vehicle gel formulation was 1.65% (w/v) HEC in NaCl. The vehicle formulation was prepared by adding the appropriate amount of HEC to 75% of the required volume of 0.9% NaCl. The resulting formulation was stirred for 20 to 25 minutes after which it was QS'ed (adjusted) to the final volume with 0.9% NaCl and stirred for an additional 2 to 3 hours at room temperature. The gel formulation was then filtered with a 0.2 μm cellulose filter.
The test item formulations were prepared by adding the appropriate amount of GB1A or GB1B to 75% of the required volume of 0.9% NaCl. The resulting formulation was agitated for 20 to 25 minutes after which the pH of the solution was measured and adjusted, as necessary, to 6-6.5 with 0.01M NaOH. The required amount of HEC was added to the test item solution and the formulation was agitated for 20 to 25 minutes. The formulation was then QS'ed to the final volume with NaCl and agitated for an additional 2 to 3 hours at room temperature. The final gel formulation was filtered with a 0.2 μm cellulose filter.
Retinal detachments were created by infusing a dilute solution (0.25%) of Healon into the subretinal space of the right eyes in 30 New Zealand White rabbits. Fifty (50) μL of GB1A (0.05 mg/mL), GB1B (1.5 mg/mL), or vehicle (HEC) formulations were injected intravitreally immediately after the detachment surgery in the right eyes of all animals (n=5 for each vehicle/test item at each time-point). The left eyes served as naïve controls. Euthanasia was performed by administering “Euthasol” IV via an ear vein, on animals of Groups 1 to 3, 3 days after retinal detachment (n=15) to examine the effects on proliferation, and on animals of Groups 4 to 6, 7 days after retinal detachment (n=15) to examine the effects on scaring.
Following euthanasia, the retinas were fixed in 4% paraformaldehyde for 24 hours. Three retinal regions approximately 3 mm square were sampled from within each detached retina as well as from control retinas. The retinas were embedded in agarose and vibratomed at 100 microns in thickness. Sections were immunolabeled with antibodies to intermediate filament proteins (vimentin) and proliferating cells (Ki67). A marker for immune cells (Isolectin B4) and a nuclear stain (DAPI) was also used. All 4 probes were added to the same sections (i.e. quadruple labeling).
The sections were imaged using an Olympus FV1000 confocal microscope. Digital images were acquired and used to determine 1) the number and size of subretinal glial scars 2) the number of dividing cells and their cell type e.g. of immune or glial origin 3) whether microglia are “activated” and 4) if macrophages are present. Animals were weighed pre-dose and at euthanasia. All animals gained a small amount of weight as was expected.
Following euthanasia, the eyes were enucleated, the cornea and lens removed and the eyecups fixed in 4% paraformaldehyde in PBS for 24 hours. Three retinal regions approximately 3 mm^2 were dissected from within each detached retina and embedded in agarose for sectioning as described above. Following immunolabeling, the sections were mounted on glass slides and cover-slipped. Digital images were captured from along the length of each section collected from each of the 3 retinal regions using a FV1000 confocal microscope. Quantitation of scar length and number, as well as the number of dividing cells, was performed using the digital images viewed in “BioImage” (software available as a free download from UCSB's dept. of engineering). In addition, the presence of immune cells as described in the Experimental Design was noted and tabulated for each animal.

Sequence of galectin-1 (P09382 whole entry): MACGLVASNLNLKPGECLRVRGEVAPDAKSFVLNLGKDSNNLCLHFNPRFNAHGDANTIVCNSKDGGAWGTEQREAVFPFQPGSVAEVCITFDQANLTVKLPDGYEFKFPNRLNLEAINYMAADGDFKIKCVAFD
Sequence of galectin-3 (P17931 whole entry): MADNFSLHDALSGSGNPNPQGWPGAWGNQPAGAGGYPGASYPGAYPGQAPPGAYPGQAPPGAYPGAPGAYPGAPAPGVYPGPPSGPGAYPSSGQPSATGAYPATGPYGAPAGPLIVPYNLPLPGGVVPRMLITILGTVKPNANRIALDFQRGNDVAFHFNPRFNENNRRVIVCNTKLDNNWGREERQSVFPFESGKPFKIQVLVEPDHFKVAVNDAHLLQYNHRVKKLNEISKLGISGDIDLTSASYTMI

Structure (SMILES): O=C[C@H](O)[C@@H](O)[C@@H](O)[C@H](O)CO [D-galactose]
affinity relative to lactose (galectins): 50-100 times lower

Structure (SMILES): OCC1O[C@@H](SC2O[C@H](CO)C(O)C(n3cc(N4CCOCC4)nn3)[C@H]2O)C(O)C(n2cc(-c3cc(F)c(F)c(F)c3)nn2)[C@H]1O (stereo partly drawn) [Example 1, 3,3′-Dideoxy-3-[4-(morpholin-4-yl)-1H-1,2,3-triazol-1-yl]-3′-[4-(3,4,5-trifluorophenyl)-1H-1,2,3-triazol-1-yl]-1,1′-sulfanediyl-di-β-D-galactopyranoside]
Kd (galectin-1): 0.11 µM

Structure (SMILES): OCC1O[C@@H](SC2O[C@H](CO)C(O)C(n3cc(N4CCOCC4)nn3)[C@H]2O)C(O)[C@@H](n2cc(-c3cc(F)c(F)c(F)c3)nn2)[C@H]1O (stereo partly drawn) [Example 1, 3,3′-Dideoxy-3-[4-(morpholin-4-yl)-1H-1,2,3-triazol-1-yl]-3′-[4-(3,4,5-trifluorophenyl)-1H-1,2,3-triazol-1-yl]-1,1′-sulfanediyl-di-β-D-galactopyranoside]
solubility (Solubility): > 10000 µg/mL

Structure (SMILES): CN1CCN(c2cn(C3C(O)[C@@H](CO)OC(S[C@@H]4OC(CO)[C@H](O)C(n5cc(-c6cc(F)c(F)c(F)c6)nn5)C4O)[C@@H]3O)nn2)CC1 (stereo partly drawn) [Example 2, 3,3′-Dideoxy-3-[4-(4-methylpiperazin-1-yl)-1H-1,2,3-triazol-1-yl]-3′-[4-(3,4,5-trifluorophenyl)-1H-1,2,3-triazol-1-yl]-1,1′-sulfanediyl-di-β-D-galactopyranoside]
Kd (galectin-1): 0.035 µM

Structure (SMILES): OC[C@H]1O[C@@H](S[C@@H]2O[C@H](CO)[C@H](O)[C@H](n3cc(-c4cccc(F)c4)nn3)[C@H]2O)[C@H](O)[C@@H](n2cc(-c3cccc(F)c3)nn2)[C@H]1O [GB1A, 3,3′-Dideoxy-3,3′-bis-[4-(3-fluoro-phenyl)-1H-1,2,3-triazol-1-yl]-1,1′-sulfanediyl-di-β-D-galactopyranoside]
reduction of size and number of subretinal glial scars and number of dividing cells [1]: highly effective | number of subretinal scars per mm of retina [1]: 0.45 scars per mm of retina | scar length per mm of retina [1]: 25.83 microns per mm of retina | Ki67 labeled Muller cells per mm of retina [1]: 3.01 cells per mm of retina

Structure (SMILES): OC[C@H]1O[C@@H](S[C@@H]2O[C@H](CO)[C@H](O)[C@H](n3cc(-c4ccc(F)cn4)nn3)[C@H]2O)[C@H](O)[C@@H](n2cc(-c3ccc(F)cn3)nn2)[C@H]1O [GB1B, 3,3′-Dideoxy-3,3′-bis-[4-(5-fluoro-2-pyridinyl)-1H-1,2,3-triazol-1-yl]-1,1′-sulfanediyl-di-β-D-galactopyranoside]
reduction of size and number of subretinal glial scars and number of dividing cells [1]: highly effective | number of subretinal scars per mm of retina [1]: 0.43 scars per mm of retina | scar length per mm of retina [1]: 28.8 microns per mm of retina | Ki67 labeled Muller cells per mm of retina [1]: 2.73 cells per mm of retina

Structure (SMILES): OC[C@H]1O[C@@H](O[C@H]2[C@H](O)[C@@H](O)C(O)O[C@@H]2CO)[C@H](O)[C@@H](O)[C@H]1O (stereo partly drawn) [lactose]
Kd (galectins): 500 to 1000 µM

Second part, the molecule after the results:

solubility (Solubility): > 10000 µg/mL
Structure (SMILES): CN1CCN(c2cn(C3C(O)[C@@H](CO)OC(S[C@@H]4OC(CO)[C@H](O)[C@H](n5cc(-c6cc(F)c(F)c(F)c6)nn5)C4O)[C@@H]3O)nn2)CC1 (stereo partly drawn) [Example 2, 3,3′-Dideoxy-3-[4-(4-methylpiperazin-1-yl)-1H-1,2,3-triazol-1-yl]-3′-[4-(3,4,5-trifluorophenyl)-1H-1,2,3-triazol-1-yl]-1,1′-sulfanediyl-di-β-D-galactopyranoside]

Kd (galectin-3): 0.005 µM | Kd (galectin-1): 0.029 µM | solubility (Solubility): > 10000 µg/mL
Structure (SMILES): OCC1O[C@@H](SC2O[C@H](CO)C(O)C(n3cc(C4CCNCC4)nn3)[C@H]2O)C(O)[C@@H](n2cc(-c3cc(F)c(F)c(F)c3)nn2)[C@H]1O (stereo partly drawn) [Example 3, 3,3′-Dideoxy-3-[4-(piperidin-4-yl)-1H-1,2,3-triazol-1-yl]-3′-[4-(3,4,5-trifluorophenyl)-1H-1,2,3-triazol-1-yl]-1,1′-sulfanediyl-di-β-D-galactopyranoside]

Kd (galectin-1): 0.058 µM
Structure (SMILES): OCC1O[C@@H](SC2O[C@H](CO)C(O)C(n3cc(C4CCOCC4)nn3)[C@H]2O)C(O)C(n2cc(-c3cc(F)c(F)c(F)c3)nn2)[C@H]1O (stereo partly drawn) [Example 4, 3,3′-Dideoxy-3-[4-(tetrahydropyran-4-yl)-1H-1,2,3-triazol-1-yl]-3′-[4-(3,4,5-trifluorophenyl)-1H-1,2,3-triazol-1-yl]-1,1′-sulfanediyl-di-β-D-galactopyranoside]

solubility (Solubility): 8100 µg/mL (≈ 12 mM)
Structure (SMILES): OCC1O[C@@H](SC2O[C@H](CO)C(O)C(n3cc(C4CCOCC4)nn3)[C@H]2O)C(O)[C@@H](n2cc(-c3cc(F)c(F)c(F)c3)nn2)[C@H]1O (stereo partly drawn) [Example 4, 3,3′-Dideoxy-3-[4-(tetrahydropyran-4-yl)-1H-1,2,3-triazol-1-yl]-3′-[4-(3,4,5-trifluorophenyl)-1H-1,2,3-triazol-1-yl]-1,1′-sulfanediyl-di-β-D-galactopyranoside]

Kd (galectin-1): 0.07 µM
Structure (SMILES): CC(C)c1cn(C2C(O)[C@@H](CO)OC(S[C@@H]3OC(CO)[C@H](O)C(n4cc(-c5cc(F)c(F)c(F)c5)nn4)C3O)[C@@H]2O)nn1 (stereo partly drawn) [Example 5, 3,3′-Dideoxy-3-[4-(propan-2-yl)-1H-1,2,3-triazol-1-yl]-3′-[4-(3,4,5-trifluorophenyl)-1H-1,2,3-triazol-1-yl]-1,1′-sulfanediyl-di-β-D-galactopyranoside]

solubility (Solubility): > 10000 µg/mL
Structure (SMILES): CC(C)c1cn(C2C(O)[C@@H](CO)OC(S[C@@H]3OC(CO)[C@H](O)[C@H](n4cc(-c5cc(F)c(F)c(F)c5)nn4)C3O)[C@@H]2O)nn1 (stereo partly drawn) [Example 5, 3,3′-Dideoxy-3-[4-(propan-2-yl)-1H-1,2,3-triazol-1-yl]-3′-[4-(3,4,5-trifluorophenyl)-1H-1,2,3-triazol-1-yl]-1,1′-sulfanediyl-di-β-D-galactopyranoside]
